The results in this text go back to patent US11155517B2, “4-substituted phenylamine derivatives and their use to protect crops by fighting undesired phytopathogenic micoorganisms” (PI INDUSTRIES LTD., priority 2016, dated 2021).

What all share (format): cell-based
One test relates to Colletotrichum capsici. In words: Colletotrichum capsici (anthracnose) in vitro test, radial growth on Potato Dextrose Agar. Conditions: Colletotrichum truncatum, 168 h; 300 ppm; seven days, 25° C.; read-out: % control compared to the untreated check (radial growth).
For a further test, the system named is Pyricularia oryzae. In words: microbe, parasite or virus in culture. Conditions: 168 h, read-out: % control compared to the untreated check (radial growth).
In a further test the test system is Septoria lycopersici. As to the kind of experiment: Septoria lycopersici (leaf spot of tomato) in vitro test, radial growth on Potato Dextrose Agar. Conditions: 168 h, seven days, 25° C., read-out: % control compared to the untreated check (radial growth).
In another test the test system is Fusarium culmorum. In words: Fusarium culmorum (foot rot of cereals) in vitro test, radial growth on Potato Dextrose Agar. Conditions: Fusarium culmorum, 168 h, read-out: % control compared to the untreated check (radial growth).
A further test has as its system Rhizoctonia solani. In words: Rhizoctonia solani (rice sheath blight/potato black scurf) in vitro test, radial growth on Potato Dextrose Agar. Conditions: 168 h, 300 ppm, seven days, 25° C., read-out: % control compared to the untreated check (radial growth).
The next test deals with Alternaria solani. As to the kind of experiment: Alternaria solani (early blight of tomato/potato) in vitro test, radial growth on Potato Dextrose Agar. Conditions: 168 h, 300 ppm, seven days, 25° C., read-out: % control compared to the untreated check (radial growth).
The test system of a further test is Botrytis cinerea. As to the kind of experiment: Botrytis cinerea (gray mold) in vitro test, radial growth on Potato Dextrose Agar. Conditions: 168 h, 300 ppm, seven days, 22° C., read-out: % (control) compared to the untreated check (radial growth).

In the case of `CCN(C)C=Nc1cc(F)c(Cc2cccc(Cl)c2)cc1C` [Compound 173, N′-(4-(3-chlorobenzyl)-5-fluoro-2-methylphenyl)-N-ethyl-N-methylformimidamide], the inhibition of growth at 300 ppm with Colletotrichum capsici is above 80%; in the test with Pyricularia oryzae it was above 75%; in the test with Septoria lycopersici it was above 70%; in the test with Fusarium culmorum, 75%; in the test with Rhizoctonia solani, above 80%; with Alternaria solani, above 75%. Further, the inhibition of growth at 300 ppm with Botrytis cinerea is above 80%.

As to `Cc1cc(N=CN2CCCCC2)c(C)cc1Cc1ccc(F)cc1` [Compound 60, N-(4-(4-fluorobenzyl)-2,5-dimethylphenyl)-1-(piperidin-1-yl)methanimine], the inhibition of growth at 300 ppm with Colletotrichum capsici is above 80%; with Pyricularia oryzae, above 75%; with Septoria lycopersici it was above 70%; in the test on Fusarium culmorum, 75%; with Rhizoctonia solani, above 80%; with Alternaria solani it was above 75%. For the same molecule, the inhibition of growth at 300 ppm with Botrytis cinerea is above 80%.

Take `CCN(C)C=Nc1cc(C)c(Cc2cccc(OC)c2)cc1C` [Compound 45, N-ethyl-N′-(4-(3-methoxybenzyl)-2,5-dimethylphenyl)-N-methylformimidamide]: the inhibition of growth at 300 ppm is above 80% with Colletotrichum capsici; above 75% in the test with Pyricularia oryzae; above 70% in the test on Septoria lycopersici; 75% in the test on Fusarium culmorum; above 80% in the test with Rhizoctonia solani; above 75% in the test with Alternaria solani. In addition, the inhibition of growth at 300 ppm with Botrytis cinerea is above 80%.

Regarding `CCN(C)C=Nc1cc(C)c(Cc2cccc(C)c2)cc1F` [Compound 210, N-ethyl-N′-(2-fluoro-5-methyl-4-(3-methylbenzyl)phenyl)-N-methylformimidamide], the inhibition of growth at 300 ppm in the test on Colletotrichum capsici was above 80%; with Pyricularia oryzae it was above 75%; with Septoria lycopersici, above 70%; in the test on Fusarium culmorum it was 75%; in the test with Rhizoctonia solani, above 80%; in the test with Alternaria solani it was above 75%. For the same molecule, the inhibition of growth at 300 ppm with Botrytis cinerea was above 80%.

Regarding `CCN(C)C=Nc1cc(C)c(Cc2ccc(Cl)c(C)c2)cc1C` [Compound 108, N′-(4-(4-chloro-3-methylbenzyl)-2,5-dimethylphenyl)-N-ethyl-N-methylformimidamide], the inhibition of growth at 300 ppm with Colletotrichum capsici is above 80%; in the test on Pyricularia oryzae, above 75%; in the test on Septoria lycopersici it was above 70%; in the test with Fusarium culmorum, 75%; in the test with Rhizoctonia solani it was above 80%; with Alternaria solani, above 75%. Further, the inhibition of growth at 300 ppm in the test on Botrytis cinerea was above 80%.

As for `CCN(C)C=Nc1cc(C)c(Cc2cccc(Cl)c2)cc1F` [Compound 208, N′-(4-(3-chlorobenzyl)-2-fluoro-5-methylphenyl)-N-ethyl-N-methylformimidamide], the inhibition of growth at 300 ppm in the test on Colletotrichum capsici is above 80%; in the test with Pyricularia oryzae, above 75%; with Septoria lycopersici it was above 70%; in the test with Fusarium culmorum, 75%; with Rhizoctonia solani, above 80%; in the test with Alternaria solani, above 75%. The inhibition of growth at 300 ppm with Botrytis cinerea is above 80%.

For `CCN(C)C=Nc1cc(C)c(Cc2cccc(Cl)c2)cc1C1CC1` [Compound 199, N′-(4-(3-chlorobenzyl)-2-cyclopropyl-5-methylphenyl)-N-ethyl-N-methylformimidamide], the inhibition of growth at 300 ppm is above 80% in the test with Colletotrichum capsici; above 75% with Pyricularia oryzae; above 70% in the test with Septoria lycopersici; 75% in the test on Fusarium culmorum; above 80% in the test on Rhizoctonia solani; above 75% in the test with Alternaria solani. In addition, the inhibition of growth at 300 ppm in the test on Botrytis cinerea was above 80%.

Regarding `CCN(C)C=Nc1cc(C)c(Cc2cccc([N+](=O)[O-])c2)cc1C` [Compound 49, N′-(2,5-dimethyl-4-(3-nitrobenzyl)phenyl)-N-ethyl-N-methylformimidamide], the inhibition of growth at 300 ppm in the test on Colletotrichum capsici was above 80%; in the test on Pyricularia oryzae, above 75%; in the test on Septoria lycopersici it was above 70%; in the test on Fusarium culmorum, 75%; with Rhizoctonia solani, above 80%; in the test on Alternaria solani it was above 75%. In addition, the inhibition of growth at 300 ppm in the test with Botrytis cinerea was above 80%.

With `CCN(C)C=Nc1cc(C)c(Cc2ccc(OC)cc2)cc1Cl` [Compound 69, N′-(2-chloro-4-(4-methoxybenzyl)-5-methylphenyl)-N-ethyl-N-methylformimidamide], the inhibition of growth at 300 ppm in the test on Colletotrichum capsici was above 80%; in the test with Pyricularia oryzae, above 75%; with Septoria lycopersici, above 70%; in the test with Fusarium culmorum it was 75%; with Rhizoctonia solani, above 80%; with Alternaria solani, above 75%. For the same molecule, in the test on Botrytis cinerea, the inhibition of growth at 300 ppm was above 80%.

On to `C=CCN(C)C=Nc1cc(C)c(Cc2ccccc2F)cc1C` [Compound 83, N-allyl-N′-(4-(2-fluorobenzyl)-2,5-dimethylphenyl)-N-methylformimidamide], for which the inhibition of growth at 300 ppm was above 80% in the test on Colletotrichum capsici; above 75% with Pyricularia oryzae; above 70% in the test with Septoria lycopersici; 75% in the test on Fusarium culmorum; above 80% in the test on Rhizoctonia solani; above 75% with Alternaria solani. For the same molecule, the inhibition of growth at 300 ppm in the test on Botrytis cinerea is above 80%.

On to `CCN(C)C=Nc1cc(C)c(Cc2ccc(F)cc2C)cc1Cl` [Compound 167, N′-(2-chloro-4-(4-fluoro-2-methylbenzyl)-5-methylphenyl)-N-ethyl-N-methylformimidamide], for which the inhibition of growth at 300 ppm was above 80% in the test on Colletotrichum capsici; above 75% in the test on Pyricularia oryzae; above 70% with Septoria lycopersici; 75% in the test with Fusarium culmorum; above 80% with Rhizoctonia solani; above 75% in the test with Alternaria solani. In addition, the inhibition of growth at 300 ppm in the test on Botrytis cinerea is above 80%.

In the case of `Cc1cc(N=CNC(C)C)c(C)cc1Cc1ccccc1Cl` [Compound 67, N′-(4-(2-chlorobenzyl)-2,5-dimethylphenyl)-N-isopropylformimidamide], the inhibition of growth at 300 ppm in the test on Colletotrichum capsici is above 80%; with Pyricularia oryzae it was above 75%; with Septoria lycopersici, above 70%; in the test with Fusarium culmorum, 75%; in the test on Rhizoctonia solani, above 80%; with Alternaria solani it was above 75%. For the same molecule, the inhibition of growth at 300 ppm in the test on Botrytis cinerea was above 80%.

Take `C=CCN(C)C=Nc1cc(C)c(Cc2ccccc2Cl)cc1C` [Compound 84, N-allyl-N′-(4-(2-chlorobenzyl)-2,5-dimethylphenyl)-N-methylformimidamide]: the inhibition of growth at 300 ppm in the test with Colletotrichum capsici is above 80%; in the test on Pyricularia oryzae, above 75%; in the test with Septoria lycopersici it was above 70%; with Fusarium culmorum it was 75%; in the test with Rhizoctonia solani it was above 80%; with Alternaria solani it was above 75%. Moreover, the inhibition of growth at 300 ppm in the test on Botrytis cinerea was above 80%.

Consider `CCN(C)C=Nc1cc(C)c(Cc2ccc(Cl)c(OC(F)(F)F)c2)cc1C` [Compound 145, N′-(4-(4-chloro-3-(trifluoromethoxy)benzyl)-2,5-dimethylphenyl)-N-ethyl-N-methylformimidamide], for which the inhibition of growth at 300 ppm was above 80% in the test with Colletotrichum capsici; above 75% in the test with Pyricularia oryzae; above 70% with Septoria lycopersici; 75% with Fusarium culmorum; above 80% in the test on Rhizoctonia solani; above 75% in the test with Alternaria solani. In addition, in the test with Botrytis cinerea, the inhibition of growth at 300 ppm was above 80%.

Take `CCN(C)C=Nc1cc(C)c(Cc2ccc(SC(F)(F)F)cc2)cc1C` [Compound 92, N′-(2,5-dimethyl-4-(4-((trifluoromethyl)thio)benzyl)phenyl)-N-ethyl-N-methylformimidamide]: the inhibition of growth at 300 ppm is above 80% in the test with Colletotrichum capsici; above 75% in the test with Pyricularia oryzae; above 70% in the test on Septoria lycopersici; 75% in the test on Fusarium culmorum; above 80% with Rhizoctonia solani; above 75% with Alternaria solani. For the same molecule, in the test on Botrytis cinerea, the inhibition of growth at 300 ppm is above 80%.

`CCN(C)C=Nc1cc(C)c(Cc2ccc(C(F)(F)F)cc2F)cc1C` [Compound 201, N-ethyl-N′-(4-(2-fluoro-4-(trifluoromethyl)benzyl)-2,5-dimethylphenyl)-N-methylformimidamide]: the inhibition of growth at 300 ppm with Colletotrichum capsici is above 80%; with Pyricularia oryzae it was above 75%; in the test on Septoria lycopersici it was above 70%; with Fusarium culmorum, 75%; in the test with Rhizoctonia solani, above 80%; with Alternaria solani, above 75%. In addition, the inhibition of growth at 300 ppm with Botrytis cinerea is above 80%.

For `CCN(C)C=Nc1cc(C)c(Cc2ccccc2Cl)cc1F` [Compound 213, N′-(4-(2-chlorobenzyl)-2-fluoro-5-methylphenyl)-N-ethyl-N-methylformimidamide], the inhibition of growth at 300 ppm with Colletotrichum capsici was above 80%; in the test on Pyricularia oryzae, above 75%; in the test with Septoria lycopersici, above 70%; with Fusarium culmorum, 75%; with Rhizoctonia solani, above 80%; in the test with Alternaria solani it was above 75%. Moreover, the inhibition of growth at 300 ppm in the test on Botrytis cinerea is above 80%.
